ChEMBL document CHEMBL1201862, “PubChem BioAssay data set” (2004)
The source made the active and inactive calls.

Legend:
[1] = luciferase reporter signal suppression in cells – H4 neuroglioma cells, luminescence, dose response (AID 1990); type: functional, cell-based
[2] = Luminescence Cell-Based Dose Response HTS to Identify Inhibitors of 5'UTR Stem-Loop Driven Prion Protein mRNA Translation in H4 Neuroglioblastoma Cells. [Related pubchem assays: 1827 (Project Summary), 1813 (Primary HTS)]; type: functional
[3] = alpha-synuclein stem-loop luciferase translation blockers – H4 neuroglioma cells, luminescence, confirmation (AID 1988); type: functional, cell-based
[4] = Trypanosoma cruzi growth suppression in host cells – NIH3T3 host cells, beta-gal luminescence, confirmation (AID 2044); type: functional, cell-based;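 also: intracellular parasites grown in NIH/3T3 mouse fibroblasts as host cells; luminescent beta-galactosidase reporter signal from transgenic T. cruzi replicating inside host cells; inhibitors lower the luminescence signal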
[5] = microbe, parasite or virus in culture; type: functional; details: Mycobacterium tuberculosis
[6] = NIH3T3 cell viability loss – ATP luminescence, mouse fibroblasts, counter-screen, dose response (AID 2010); type: functional, cell-based;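 also: cells exposed to compound for about 90 hours before reading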
INS1 = assay: INS-1E survival protection against cytokine death – cell-based, luminescence, retest, dose response (AID 449756); type: functional; details: Rattus norvegicus;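 also: cell death triggered by IL-1 beta plus TNF-alpha plus IFN-gamma mixture; protective hits raise ATP signal compared with cytokine alone wells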
cells [7] = assay: cells
[8] = NIH-3T3 fibroblast cytotoxicity, dose response, cytotoxicity control, cell-based, fluorescence, Alamar Blue, secondary assay (AID 2327); type: functional;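 also: NIH-3T3 mouse fibroblasts cultured with fluconazole at 8 µg/mL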
[9] = test system: Streptococcus sp. 'group A'; assay: Streptococcus pyogenes SK(-)GAS viability under kanamycin – luminescence, BacTiterGlo, confirmation, counter-screen for streptokinase expression inhibitor project, dose response (AID 1900); type: functional, organism-based
Streptokinase A = molecular target: T1, Streptokinase A (Streptococcus pyogenes serotype M1, UniProt P10520); assay: viability-normalized secreted streptokinase activity reduction – plasminogen activation absorbance, OD405, dose response (AID 1914); type: functional, Streptococcus pyogenes M1 GAS;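 also: secreted streptokinase activity via plasminogen activation per viability signal from cell pellet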
T1 sequence (P10520 whole entry): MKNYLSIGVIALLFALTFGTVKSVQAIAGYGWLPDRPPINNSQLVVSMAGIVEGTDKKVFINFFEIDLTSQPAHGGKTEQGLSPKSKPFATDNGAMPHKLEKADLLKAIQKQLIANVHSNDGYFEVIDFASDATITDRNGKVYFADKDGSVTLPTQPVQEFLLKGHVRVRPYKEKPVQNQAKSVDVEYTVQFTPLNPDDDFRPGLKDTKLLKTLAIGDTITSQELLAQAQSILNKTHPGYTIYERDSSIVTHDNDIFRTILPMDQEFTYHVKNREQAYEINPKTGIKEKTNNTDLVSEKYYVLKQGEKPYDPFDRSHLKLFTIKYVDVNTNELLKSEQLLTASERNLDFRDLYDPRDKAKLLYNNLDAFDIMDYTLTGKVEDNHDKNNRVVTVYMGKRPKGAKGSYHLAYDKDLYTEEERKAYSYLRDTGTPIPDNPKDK

[10] = fluconazole-exposed Candida albicans growth modulators – fluorescence, retest, confirmation (AID 2467); type: functional, cell-based
[11] = CCR5-tropic HIV-1 fusion blockers – cell-based, CCR5-tropic Env, dose response (AID 2279); type: functional
Streptococcus = assay: GAS UMAA2166 growth inhibition – luminescence, BacTiterGlo, counter-screen for streptokinase expression inhibitor project, dose response (AID 1915); type: functional, organism-based;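 also: potency for reduction of bacterial viability or growth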
[12] = molecular target: 26S proteasome non-ATPase regulatory subunit 14 (Homo sapiens, UniProt O00487); assay: inhibition of proteasome subunit RPN11 – biochemical, fluorescence polarization, uHTS hits, confirmation (AID 602368); type: functional
[13] = molecular target: 72 kDa type IV collagenase (Homo sapiens, UniProt P08253); assay: Dose Response validation of uHTS RPN11 inhibitor hits using a MMP-2 Fluorescence assay.; type: functional
Prothrombin = Prothrombin (Bos taurus, UniProt P00735); assay: thrombin protease inhibitors – biochemical, fluorescence polarization, uHTS hits, dose response (AID 602369); type: functional
Aminopeptidase N = molecular target: T2, Aminopeptidase N (Plasmodium falciparum FcB1/Columbia, UniProt O96935); assay: malaria alanyl aminopeptidase activity blockers – biochemical, fluorogenic H-Leu-NHMec substrate, 1536-well (AID 1445); set-up: species or system Plasmodium falciparum 3D7, 3D7
T2 sequence (O96935 whole entry): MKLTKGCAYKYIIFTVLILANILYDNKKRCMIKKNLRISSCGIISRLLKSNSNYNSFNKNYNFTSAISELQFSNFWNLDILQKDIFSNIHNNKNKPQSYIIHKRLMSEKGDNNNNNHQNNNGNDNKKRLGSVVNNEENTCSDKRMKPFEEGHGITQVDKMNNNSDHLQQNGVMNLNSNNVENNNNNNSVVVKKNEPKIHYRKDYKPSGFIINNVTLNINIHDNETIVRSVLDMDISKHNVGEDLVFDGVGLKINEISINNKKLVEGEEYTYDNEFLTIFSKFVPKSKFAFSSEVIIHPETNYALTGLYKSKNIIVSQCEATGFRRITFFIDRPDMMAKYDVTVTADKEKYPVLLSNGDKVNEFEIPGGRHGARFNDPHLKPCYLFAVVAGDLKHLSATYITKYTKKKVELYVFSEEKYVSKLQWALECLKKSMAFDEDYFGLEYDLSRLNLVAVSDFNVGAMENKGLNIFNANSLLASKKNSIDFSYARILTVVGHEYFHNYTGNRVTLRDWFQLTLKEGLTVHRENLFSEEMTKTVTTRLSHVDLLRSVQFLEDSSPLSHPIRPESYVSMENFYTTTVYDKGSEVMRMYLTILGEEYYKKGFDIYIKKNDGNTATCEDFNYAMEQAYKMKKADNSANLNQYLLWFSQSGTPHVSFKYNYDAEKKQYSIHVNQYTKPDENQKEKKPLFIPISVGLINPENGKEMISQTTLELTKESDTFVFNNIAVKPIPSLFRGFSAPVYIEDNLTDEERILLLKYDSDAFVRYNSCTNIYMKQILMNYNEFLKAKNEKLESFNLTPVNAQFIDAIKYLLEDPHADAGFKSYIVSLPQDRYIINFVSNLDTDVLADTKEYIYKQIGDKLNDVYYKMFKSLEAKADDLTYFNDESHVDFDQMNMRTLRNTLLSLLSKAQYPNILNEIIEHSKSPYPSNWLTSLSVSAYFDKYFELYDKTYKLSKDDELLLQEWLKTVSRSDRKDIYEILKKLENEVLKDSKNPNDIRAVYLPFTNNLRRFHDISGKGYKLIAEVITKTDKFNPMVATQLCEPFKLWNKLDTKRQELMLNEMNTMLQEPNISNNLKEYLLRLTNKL

[14] = HPDE-C7 pancreatic duct cell viability loss – fluorescence, HTS (AID 430); type: functional, cell-based; details: Homo sapiens
[15] = viability loss of HPDE-C7K cells – cell-based, fluorescence, HTS, primary screen (AID 431); type: functional; details: Homo sapiens
Cytochrome P450 2D6 = Cytochrome P450 2D6 (Homo sapiens, UniProt P10635); assay: qHTS Assay for Inhibitors and Substrates of Cytochrome P450 2D6. [Related pubchem assays: 410 ]; type: ADME; details: read-out: Potency
[16] = molecular target: Lysosomal acid glucosylceramidase (Homo sapiens, UniProt P04062); assay: Dose response cell-based high throughput screening assay to identify enhancers of beta-glucosidase activity. [Related pubchem assays: 784 ]; type: functional
[17] = molecular target: Protein-tyrosine kinase 2-beta (Homo sapiens, UniProt Q14289);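 also: potency of inhibitors of PYK2 kinase phosphorylation of poly-GT substrate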
Major prion protein = Major prion protein (Homo sapiens, UniProt P04156); type: functional, cell-based
cells [18] = assay: cells; remark: listed apart in the source

For `Fc1ccc(C[n+]2c(-c3ccccc3)cc(-c3ccccc3)cc2-c2ccccc2)cc1.[O-][Cl+3]([O-])([O-])[O-]`, which EC50 [1] is on record?
Its EC50 is 11.2 µM (active).

What about the EC50 [2] of the same molecule?
Its EC50 is 35.3 µM (active).

And the EC50 [3]?
Its EC50 is > 120 µM (not active).

What about the EC50 [4] of the same molecule?
The EC50 was < 0.1 µM (active).

What about the CC50 [5] of the same molecule?
The CC50 was > 40 µM (active).

What about the EC50 [6] of the same molecule?
The EC50 was > 60 µM (not active).

And the AC50 (INS1)?
Its AC50 is 2.98 µM (active).

What about the EC50 (cells [7]) of the same molecule?
Its EC50 is 0.053 µM (active).

With `COc1cc([N+](=O)[O-])cc(/C=N/NC(=O)c2cc(-c3ccccc3)nc3ccccc23)c1O` as the molecule, how does the EC50 [8] read?
The EC50 was 22.5 µM (inconclusive).

What about the EC50 [9] of the same molecule?
The EC50 was 5.37 µM (active).

What about the EC50 (Streptokinase A) of the same molecule?
The EC50 was > 150 µM (not active).

And the EC50 [10]?
The EC50 was 2.08 µM (active).

What about the IC50 [11] of the same molecule?
Its IC50 is 31.7 µM (active).

And the EC50 (Streptococcus)?
The EC50 was 8.58 µM (active).

And the AC50 (INS1)?
Its AC50 is 3.63 µM (active).

And the IC50 [12]?
Its IC50 is 22.3 µM (active).

What about the IC50 [13] of the same molecule?
The IC50 was 3.79 µM (active).

And the IC50 (Prothrombin)?
The IC50 was 75.1 µM (active).

For `COC(=O)c1ccc(O)c(Sc2cc(C(=O)OC)ccc2O)c1`, which IC50 (Aminopeptidase N) is on record?
Its IC50 is 33.1 µM (active).

What about the EC50 [14] of the same molecule?
Its EC50 is 13.6 µM (active).

And the EC50 [15]?
The EC50 was > 20 µM (not active).

For `CC(C)[C@@]1(NC(=O)[C@H]2C[C@H]3c4cccc5[nH]cc(c45)C[C@@H]3N(C)C2)O[C@]2(O)[C@H]3CCCN3C(=O)[C@H](Cc3ccccc3)N2C1=O`, which AC50 (Cytochrome P450 2D6) is on record?
The AC50 was 31.6 µM (inconclusive).

For `c1ccc(Cn2c(SCc3nc4ccccc4s3)nnc2-c2ccco2)cc1`, which EC50 [16] is on record?
The EC50 was > 50 µM (not active).

Which IC50 [11] does the source give for `CCOc1ccc(CCNC(=O)c2ccc3c(=O)[nH]c4c(C(=O)NC(C)C)sc(=S)n4c3c2)cc1` here?
The IC50 was 30.1 µM (active).

Which IC50 [17] does the source give for `Cc1cc(NC(=O)CSc2nc(C(C)C)nc3ccccc23)no1` here?
The IC50 was > 69.5 µM (not active).

What about the IC50 (Major prion protein) of the same molecule?
Its IC50 is 0.936 µM (active).

What about the IC50 (cells [18]) of the same molecule?
The IC50 was > 138 µM (inactive).

For `CC(C)(C)C(=O)Nc1nc2c(s1)COc1ccccc1-2`, which IC50 [17] is on record?
Its IC50 is > 69.5 µM (not active).
